US7491501B2, “Methods for identifying modulators of intracellular aggregate formation” (Auburn University, priority 2003, dated 2009)

What was measured:
Assay type in all cases: cell-based
[1] = tested on: tau polyubiquitination; test: NGF-induced tau polyubiquitination in PC12 cells (FIG. 13A); settings: control not shown
Procedure: (§1) The region spanning amino acids 225-251 is necessary for the interaction of p62 with TRAF6. The peptide containing TRAF6 binding motif in p62 along with the hydrophobic sequence containing the cell-permeable motif from Kaposi fibroblast growth factor sequence, […]-[…] (SEQ ID NO. 4) and control peptide […]-[…] (SEQ ID NO. 5) was synthesized. As a preliminary step, PC12 cells were pretreated with various concentrations of peptide for 5 h, followed by NGF stimulation for 15 min and immunoprecipitation with TRAF6 and western blotted with p62. […] The peptide was then tested for its ability to block NGF-induced tau polyubiquitination (FIG. 13A).

[2] = tested on: TrkA; test: NGF-dependent TrkA ubiquitination and TrkA complex formation in PC12 cells (FIG. 15B, 15C); settings: TrkA immunoprecipitation
Procedure: (§2) The peptide containing the TRAF6-binding motif in p62 along with the hydrophobic sequence containing the cell-permeable motif from Kaposi fibroblast growth factor signal sequence […]-[…] (SEQ ID NO. 4) and control peptide […]-[…] (SEQ ID NO. 5) was synthesized. As a preliminary step, PC12 cells were pretreated with different concentrations (75-300 μM) of TRAF6 peptide for 5 hours followed by NGF stimulation for 15 min and immunoprecipitation of TRAF6 followed by Western blotting for p62. […] To address whether TRAF6 peptide affects the interaction of p62 and UbcH7 with TRAF6, PC12 cells were treated with or without 150 μM of control peptide or TRAF6 peptide for 5 hours and then stimulated with NGF for 15 min. By immunoprecipitating TRAF6, TRAF6 peptide (150 μM) abrogated the interaction of p62 with TRAF6, but not UbcH7, upon NGF treatment (FIG. 8A). […] The ability of the TRAF6 peptide to impair the ubiquitination process was investigated. Lysates recovered from NGF treated cells were immunoprecipitated with TrkA receptor antibody and blotted for ubiquitin or the receptor (FIG. 15B). […] The ability of the peptide to interrupt the formation of the functional TrkA-p62-TRAF6-UbcH7 complex on NGF stimulation as well was also investigated. TrkA was immunoprecipitated and blotted for the presence of each protein in the complex (FIG. 15C).

[3] = target: T1, interaction of p62 with TRAF6 (Rattus norvegicus, UniProt B5DF45); test: TRAF6 immunoprecipitation and Western blot for p62/UbcH7 in NGF-stimulated PC12 cells; settings: NGF 15 min
T1 construct: followed by NGF stimulation for 15 min and immunoprecipitation of TRAF6 followed by Western blotting for p62; endogenous in cells; host or cells: PC12
Procedure: Immunoprecipitation and Western blotting—Each mg of lysate/inclusion bodies was incubated with 41 ng of primary antibody at 4° C. for 3 h and then with 50 μl of 50% agarose-coupled secondary antibody for 2 more hours at 4 C. The beads were washed three times with lysis buffer, eluted by adding SDS-PAGE sample buffer, and subjected to SDS-PAGE in 7.5-12% acrylamide gels. Immunoblotting was performed on nitrocellulose membranes and analyzed by western blotting with ECL detection reagents (Amersham Biosciences).
as §1, §2

T1 sequence (B5DF45 whole entry): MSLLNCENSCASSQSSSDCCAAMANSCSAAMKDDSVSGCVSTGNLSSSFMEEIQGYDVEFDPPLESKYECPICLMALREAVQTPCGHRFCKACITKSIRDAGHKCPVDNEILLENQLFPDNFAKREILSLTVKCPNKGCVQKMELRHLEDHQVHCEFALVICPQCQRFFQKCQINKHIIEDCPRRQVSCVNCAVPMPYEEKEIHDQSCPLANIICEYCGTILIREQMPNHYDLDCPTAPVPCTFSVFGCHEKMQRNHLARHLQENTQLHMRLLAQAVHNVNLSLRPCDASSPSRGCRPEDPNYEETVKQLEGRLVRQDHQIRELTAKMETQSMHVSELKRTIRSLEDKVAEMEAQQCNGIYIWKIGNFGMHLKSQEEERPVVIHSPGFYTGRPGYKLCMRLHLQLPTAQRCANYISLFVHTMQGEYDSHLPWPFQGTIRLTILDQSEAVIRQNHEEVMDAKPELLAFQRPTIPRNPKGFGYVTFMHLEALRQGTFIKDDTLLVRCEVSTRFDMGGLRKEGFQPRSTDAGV
T1 sequence (D3Z8W5 1-154 partner): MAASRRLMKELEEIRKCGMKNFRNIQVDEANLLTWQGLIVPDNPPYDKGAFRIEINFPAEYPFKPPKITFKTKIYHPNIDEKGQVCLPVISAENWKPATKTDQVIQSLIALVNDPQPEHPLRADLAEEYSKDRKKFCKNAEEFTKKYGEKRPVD

Substance: AAVALLPAVLLALLAP-ESASGPSEDPSVNFLK (AAVALLPAVLLALLAPESASGPSEDPSVNFLK; artificial sequence for cell permeable peptide) [TRAF6 peptide]
- NGF-induced tau polyubiquitination [1]: completely abrogated
- TRAF6 and UbcH7 interacting with TrkA ([2]; NGF stimulation): eliminated
- interaction of p62 and TrkA ([2]; NGF stimulation): did not disrupt
- NGF-dependent ubiquitination of TrkA ([2]; NGF treated): effectively abolish
- interaction of UbcH7 with TRAF6 ([3]; 150 μM peptide 5 hours): not
- interaction of p62 with TRAF6 ([3]; 150 μM peptide 5 hours): completely abrogated
- optimum dose to block the interaction of p62 with TRAF6 ([3]; 75-300 μM peptide 5 hours, not shown): 150 µM
- concentration of peptide found to block TRAF6 interaction with p62 ([3]; peptide 5 h, not shown): One hundred and fifty
